Laboratory results taken from patent US20250122173A1, “MODULATORS OF RHO-ASSOCIATED PROTEIN KINASE” (Redx Pharma Limited, priority 2022, published 2025).

How the values were obtained:
ROCK2 = molecular target: T1, ROCK2 (Homo sapiens, UniProt O75116); assay: ROCK2 inhibition assay (ADP-Glo kinase assay, called ROCK2 binding activity); type: biochemical; details: 20 μM ATP, 1 hour pre-incubation, read-out: ROCK 2 (IC50 category)
T1 construct: N-terminal 6His-tagged ROCK2 catalytic domain 11-552; 6His (N); purchased Dundee University, UK; host or cells: baculovirus expression system
Method in brief: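 N-terminal 6His ROCK2 catalytic domain (11-552, baculovirus-expressed; 1.25 nM) was pre-incubated with compound for 1 h (1% DMSO, HEPES pH 7.5). Reaction then ran 1 h with 100 μM long S6 peptide and 20 μM ATP. ADP was quantified by ADP-Glo luminescence, and IC50 was derived from a four-parameter logistic fit and reported in potency bins.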

ROCK1 = ROCK1 (Homo sapiens, UniProt Q13464); assay: ROCK1 inhibition assay (ROCK1 binding activity, as determined by the assay described for ROCK2); type: biochemical; details: read-out: ROCK 1 (IC50 category)
Method in brief: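 Run under the conditions used for ROCK2: 1 h compound–kinase preincubation, then 1 h reaction with 100 μM long S6 peptide and 20 μM ATP in 50 mM HEPES pH 7.5, 1% DMSO. ADP quantified by ADP-Glo luminescence; IC50 from four-parameter logistic fit, reported in potency categories.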

Sequence of ROCK1 (Q13464 whole entry): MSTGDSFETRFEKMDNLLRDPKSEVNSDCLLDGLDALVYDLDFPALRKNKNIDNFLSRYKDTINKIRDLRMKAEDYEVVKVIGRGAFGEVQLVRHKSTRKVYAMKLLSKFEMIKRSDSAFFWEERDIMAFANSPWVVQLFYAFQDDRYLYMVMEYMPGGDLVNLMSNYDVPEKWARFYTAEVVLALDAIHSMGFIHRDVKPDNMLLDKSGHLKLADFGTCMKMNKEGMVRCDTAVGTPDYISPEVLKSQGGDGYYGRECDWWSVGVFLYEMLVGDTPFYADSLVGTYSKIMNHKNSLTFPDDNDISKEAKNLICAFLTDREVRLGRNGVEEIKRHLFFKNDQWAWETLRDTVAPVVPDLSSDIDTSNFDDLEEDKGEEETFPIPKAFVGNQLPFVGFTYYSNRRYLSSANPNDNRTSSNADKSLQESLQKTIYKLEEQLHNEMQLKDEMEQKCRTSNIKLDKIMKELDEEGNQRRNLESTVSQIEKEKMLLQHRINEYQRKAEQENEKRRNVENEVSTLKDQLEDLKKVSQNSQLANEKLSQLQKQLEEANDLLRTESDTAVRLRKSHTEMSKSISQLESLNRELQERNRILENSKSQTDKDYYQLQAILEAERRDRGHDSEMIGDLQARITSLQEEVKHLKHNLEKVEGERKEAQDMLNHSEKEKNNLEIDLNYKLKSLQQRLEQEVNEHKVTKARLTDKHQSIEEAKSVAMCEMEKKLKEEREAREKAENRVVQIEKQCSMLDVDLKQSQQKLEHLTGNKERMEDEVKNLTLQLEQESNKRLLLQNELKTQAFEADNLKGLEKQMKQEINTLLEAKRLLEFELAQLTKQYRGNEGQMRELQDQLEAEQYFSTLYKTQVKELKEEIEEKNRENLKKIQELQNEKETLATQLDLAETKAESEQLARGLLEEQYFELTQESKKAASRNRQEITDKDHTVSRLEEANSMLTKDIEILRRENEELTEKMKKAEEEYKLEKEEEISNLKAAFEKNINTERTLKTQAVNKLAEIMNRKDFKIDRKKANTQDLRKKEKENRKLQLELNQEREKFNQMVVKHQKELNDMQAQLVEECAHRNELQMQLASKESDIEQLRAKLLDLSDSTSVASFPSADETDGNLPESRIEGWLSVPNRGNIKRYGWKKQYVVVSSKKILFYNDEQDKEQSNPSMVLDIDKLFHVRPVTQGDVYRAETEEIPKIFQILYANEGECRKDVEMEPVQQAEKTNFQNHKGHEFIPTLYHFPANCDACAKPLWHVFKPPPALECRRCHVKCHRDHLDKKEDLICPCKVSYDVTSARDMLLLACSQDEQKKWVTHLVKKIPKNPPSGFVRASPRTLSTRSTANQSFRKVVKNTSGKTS
T1 sequence (O75116 11-552): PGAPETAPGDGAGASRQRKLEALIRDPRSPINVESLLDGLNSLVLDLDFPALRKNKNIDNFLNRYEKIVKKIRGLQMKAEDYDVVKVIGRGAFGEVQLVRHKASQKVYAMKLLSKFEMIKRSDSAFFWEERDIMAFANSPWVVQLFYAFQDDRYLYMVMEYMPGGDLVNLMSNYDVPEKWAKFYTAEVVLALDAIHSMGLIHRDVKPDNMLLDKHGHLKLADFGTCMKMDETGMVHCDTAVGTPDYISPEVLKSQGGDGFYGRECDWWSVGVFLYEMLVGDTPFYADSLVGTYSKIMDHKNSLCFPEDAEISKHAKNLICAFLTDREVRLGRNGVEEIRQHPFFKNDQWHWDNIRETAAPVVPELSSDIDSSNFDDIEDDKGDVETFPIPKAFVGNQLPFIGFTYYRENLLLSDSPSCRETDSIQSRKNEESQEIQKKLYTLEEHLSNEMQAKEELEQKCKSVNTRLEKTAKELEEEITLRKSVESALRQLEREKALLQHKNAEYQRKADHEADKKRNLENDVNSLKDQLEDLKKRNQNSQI

Row | IC50 (ROCK2) [µM] | IC50 (ROCK1) [µM] | SMILES
1 | 0.3 to 3 | > 10 | CCn1nc(-c2ccc(C3CCN(CC(F)(F)F)CC3)cc2)nc1Nc1cc2c(cc1F)C(=O)NC2C (stereo not drawn) [Example 146]
2 | 0.3 to 3 | > 10 | CCn1nc(-c2ccc(C3CCCN(CC(F)(F)F)C3)c(C)c2)nc1Nc1cc2c(cc1C)C(=O)NC2C (stereo not drawn) [Example 147]
3 | > 10 | > 10 | CCn1nc(-c2ccc(C3CCC(C)NC3)cc2)nc1Nc1cc2c(cc1C)C(=O)NC2C (stereo not drawn) [Example 148]
4 | < 0.3 | > 10 | CCn1nc(-c2ccc(-c3ccc(C)nc3)cc2C)nc1Nc1cc2c(cc1F)C(=O)NC2C (stereo not drawn) [Example 149]
5 | < 0.3 | 3 to 10 | CCn1nc(-c2ccc(-c3ccc(C)nc3)cc2C)nc1Nc1cc2c(cc1C)C(=O)NC2C (stereo not drawn) [Example 150]
6 | > 10 | > 10 | CCn1nc(-c2ccc(C3CCCN(C)C3)cc2)nc1Nc1cc2c(cc1C)C(=O)NC2C (stereo not drawn) [Example 151]
7 | < 0.3 | 3 to 10 | CCn1nc(-c2ccc(-c3cnn(CC(F)(F)F)c3)cc2)nc1Nc1cc2c(cc1C)C(=O)NC2C (stereo not drawn) [Example 152]
8 | < 0.3 | 0.3 to 3 | CCn1nc(-c2ccc(-c3cnn(CC(F)(F)F)c3)cc2C)nc1Nc1cc2c(cc1C)C(=O)NC2C (stereo not drawn) [Example 153]
9 | < 0.3 | 0.3 to 3 | CCn1nc(-c2ccc(-c3ccc(C(C)(C)O)nc3)c(C)c2)nc1Nc1cc2c(cc1C)C(=O)NC2C (stereo not drawn) [Example 154]
10 | 3 to 10 | > 10 | CCn1nc(-c2ccc(C3CCC(C)NC3)cc2C)nc1Nc1cc2c(cc1C)C(=O)NC2C (stereo not drawn) [Example 155]
11 | 0.3 to 3 | > 10 | CCn1nc(-c2ccc(-c3ccc(C4CC4)nc3)c(C)c2)nc1Nc1cc2c(cc1C)C(=O)NC2C (stereo not drawn) [Example 156]
12 | < 0.3 | 0.3 to 3 | CCn1nc(-c2ccc(-c3ccc(C(C)(C)O)nc3)cc2)nc1Nc1cc2c(cc1C)C(=O)NC2C (stereo not drawn) [Example 157]
13 | < 0.3 | 3 to 10 | CCn1nc(-c2ccc(-n3cnc(C4CC4)c3)cc2C)nc1Nc1cc2c(cc1C)C(=O)N[C@@H]2C [Example 158]
14 | < 0.3 | 0.3 to 3 | CCn1nc(-c2ccc(-n3cnc(C4CC4)c3)cc2C)nc1Nc1cc2c(cc1C)C(=O)N[C@H]2C [Example 159]
15 | < 0.3 | 3 to 10 | CCn1nc(-c2ccc(-c3ccc(C4CC4)nc3)cc2)nc1Nc1cc2c(cc1F)C(=O)N[C@@H]2C [Example 160]
16 | < 0.3 | 3 to 10 | CCn1nc(-c2ccc(-c3ccc(C4CC4)nc3)cc2)nc1Nc1cc2c(cc1F)C(=O)N[C@H]2C [Example 161]
17 | < 0.3 | 3 to 10 | CCn1nc(-c2ccc(-c3cnn(CC(F)(F)F)c3)cc2)nc1Nc1cc2c(cc1C)C(=O)N[C@H]2C [Example 162]
18 | < 0.3 | 0.3 to 3 | CCn1nc(-c2ccc(-c3cnn(CC(F)(F)F)c3)cc2)nc1Nc1cc2c(cc1C)C(=O)N[C@@H]2C [Example 163]
